Experimental data published in PubChem BioAssay (NCI).
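A five-concentration, 48-hour dose response in 96-well plates underlies each endpoint, interpolated linearly between surrounding concentrations. At the GI50, growth is halved. TGI is the concentration that stops growth completely.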

Columns and labels:
Experiment in all cases: growth of human tumour cells (NCI), 48 h
[1] = system: HCC-2998 colon
[2] = system: HOP-62 NSCLC
[3] = system: IGROV1 ovarian
[4] = system: SF-539 CNS
[5] = system: OVCAR-3 ovarian
[6] = system: TK-10 renal
[7] = system: UO-31 renal
[8] = system: HOP-92 NSCLC
[9] = system: SR leukemia

| Compound | TGI [1] | TGI [2] | TGI [3] | TGI [4] | TGI [5] | TGI [6] | TGI [7] | TGI [8] | TGI [9] | GI50 [1] | GI50 [3] | GI50 [4] | GI50 [5] | GI50 [6] | GI50 [9] | GI50 [7] |
| --- | --- | --- | --- | --- | --- | --- | --- | --- | --- | --- | --- | --- | --- | --- | --- | --- |
| COc1c(Sc2ccccc2)cc(Sc2ccccc2)c2cccnc12 | > 100 µM | > 100 µM | > 100 µM | 85.5 µM | 61.2 µM | 81.3 µM | 54 µM |  |  |  |  |  |  |  |  |  |
| CN1C(=O)C2C=CC1C1CCC2N(C)C1=O (configuration not stated) | > 100 µM |  | > 100 µM | > 100 µM | > 100 µM | > 100 µM | > 100 µM | > 100 µM |  |  |  |  |  |  |  |  |
| CC1=NOC(=O)C1N=Nc1ccc(Br)c(C)c1 (configuration not stated) | 60.6 µM | 48.4 µM | 39.4 µM | 44.6 µM | 33.6 µM | 33.2 µM |  | 34.4 µM |  |  |  |  |  |  |  |  |
| COc1ccc2ccccc2c1CN1CCOCCOCCN(Cc2c(OC)ccc3ccccc23)CCOCCOCC1 | 35.3 µM | > 100 µM | > 100 µM | > 68.8 µM | > 100 µM | > 100 µM | > 100 µM | > 70 µM | > 100 µM |  |  |  |  |  |  |  |
| COC(=O)[C@H]1N[C@@H](C(=O)OC)C23CCC[C@H]2CC[C@]1(C(OC)OC)C3 | > 100 µM | > 100 µM | > 100 µM | > 100 µM |  | > 100 µM | > 100 µM | > 100 µM |  |  |  |  |  |  |  |  |
| Clc1ccc2c(c1)[nH]c1c2nc2sccn21 | > 100 µM | > 100 µM | > 100 µM | > 100 µM | > 100 µM | > 100 µM | > 100 µM | > 100 µM | > 100 µM |  |  |  |  |  |  |  |
| COC(=O)C(=O)C(C(=O)C(N)=O)c1nc2ccc(C(=O)c3ccccc3)cc2[nH]c1=O (configuration not stated) | > 100 µM | > 100 µM | > 100 µM | > 100 µM | > 100 µM | > 100 µM |  | > 100 µM | > 100 µM |  |  |  |  |  |  |  |
| O=C(O)Cc1ccccc1CCc1ccccc1Cl | > 100 µM |  | > 100 µM | > 100 µM | > 100 µM | > 100 µM | > 100 µM | > 100 µM | > 100 µM |  |  |  |  |  |  |  |
| CCN(CC)CCOc1c(OC)c(Br)cc2c(C)c(C(=O)OC)oc12 | 7.41 µM |  | 7.05 µM | 3.15 µM | 2.28 µM | 2.99 µM | 50 µM |  | 1.31 µM | 2.42 µM | 1.4 µM | 1.47 µM | 0.982 µM | 1.12 µM | 0.542 µM | 3.19 µM |
| O=C(CSc1nc(-c2ccccc2)c(-c2ccccc2)[nH]1)NNC(=S)Nc1ccccc1 | > 100 µM | > 100 µM | > 100 µM | > 100 µM | > 100 µM | > 100 µM | > 100 µM | > 100 µM | > 100 µM |  |  |  |  |  |  |  |
| CCOC(=O)C1=C(Nc2ccc(Cl)c(Cl)c2)OC/C1=N\NC(=O)Cc1ccccc1 | > 100 µM | > 100 µM | > 100 µM | > 100 µM | > 100 µM | > 100 µM | > 100 µM |  |  |  |  |  |  |  |  |  |
| COC(=O)C(CC(=O)c1c[nH]c2ccccc12)c1c[nH]c2ccccc12 (configuration not stated) | 45.5 µM | 54.8 µM | > 10 µM | 39.5 µM | > 10 µM | 76.9 µM | 39.3 µM |  |  |  |  |  |  |  |  |  |
| CCCCCCCCCCCCCC(=O)NCC(OCC)OCC | > 100 µM | > 100 µM | > 100 µM | > 100 µM | > 100 µM | > 100 µM | > 100 µM | > 100 µM |  |  |  |  |  |  |  |  |
| Cc1cccc(N=C2NC(=O)C(CC(=O)Nc3ccc(C)cc3C)S2)c1 (configuration not stated) | > 100 µM |  | > 100 µM | > 100 µM | > 100 µM | > 100 µM | > 100 µM | > 100 µM | > 100 µM |  |  |  |  |  |  |  |
| COc1cc(C2c3cc4c(cc3[C@@H](OCCN(C)C)C3COC(=O)[C@H]23)OCO4)cc(OC)c1O (some centres not stated) |  | 0.241 µM | 4.97 µM | 0.702 µM | 5.15 µM | 5.49 µM | 2.04 µM | 1.55 µM | 0.0831 µM |  |  |  |  |  |  |  |
| N#Cc1c(C[n+]2ccccc2)c2ccccc2oc1=O | > 100 µM | > 100 µM | > 100 µM | > 100 µM | > 100 µM |  | > 100 µM |  | > 100 µM |  |  |  |  |  |  |  |
| S=P(N1CCCC1)(N1CC1)N1CC1 | > 100 µM | > 100 µM | > 100 µM | > 100 µM | > 100 µM | > 100 µM | > 100 µM |  | > 100 µM |  |  |  |  |  |  |  |
| COc1ccccc1NC(=O)C1=C(C)NC(C)=C(C(=O)Nc2ccccc2OC)C1c1ccc(N(C)C)cc1 | 38.2 µM | 57.2 µM | > 100 µM | 73.7 µM | 44.1 µM | > 100 µM | > 100 µM | 38.6 µM |  |  |  |  |  |  |  |  |
| COc1cc(C2c3cc4c(cc3[C@@H](N(C)C)[C@H]3COC(=O)C23)OCO4)cc(OC)c1O (some centres not stated) | > 100 µM | > 100 µM | > 100 µM | 53.8 µM |  | > 100 µM | > 100 µM | 68.1 µM | > 100 µM |  |  |  |  |  |  |  |
| COC(=O)c1ccc(C(=O)OC)c2nc3cc(C)ccc3nc12 | > 100 µM | > 100 µM | > 100 µM | > 100 µM | > 100 µM | > 100 µM | > 100 µM | > 100 µM |  |  |  |  |  |  |  |  |
